Reference: a compilation of properties of binary mixtures (doi:10.1016/j.molliq.2020.112754)

Assay: xn = mol fraction of the nth substance listed
Conditions: 100 kPa

CCCCCC[N+]1(C)CCCC1.O=S(=O)([N-]S(=O)(=O)C(F)(F)F)C(F)(F)F + Cc1ccccc1
viscosity [mPa·s]
Conditions	x2 = 0	x2 = 0.0942	x2 = 0.1943	x2 = 0.29	x2 = 0.3938	x2 = 0.493	x2 = 0.5961	x2 = 0.6986	x2 = 0.7993
293.15 K	136.2	103.1	77.3	55.6	–	24.39	14.74	8.36	–
298.15 K	102.8	79.3	61.2	44.91	30.92	20.68	12.89	7.61	3.838
303.15 K	79.6	62.3	48	36.7	25.95	17.85	–	6.93	3.477
308.15 K	63.1	50.2	39.6	–	22.17	15.66	10.64	6.49	–
313.15 K	–	40.96	32.72	25.67	19.3	14.05	9.54	5.88	2.944

Cc1ccccc1 + CCCC[n+]1ccccc1.O=S(=O)([N-]S(=O)(=O)C(F)(F)F)C(F)(F)F
x1 = 1
Conditions	viscosity [mPa·s]
293.15 K	0.598
298.15 K	0.569
303.15 K	0.539
308.15 K	0.509
313.15 K	0.485

Cc1ccccc1 + CCCCCC[N+]1(C)CCCC1.O=S(=O)([N-]S(=O)(=O)C(F)(F)F)C(F)(F)F
x1 = 1
Conditions	viscosity [mPa·s]
293.15 K	0.598
298.15 K	0.569
303.15 K	0.539
313.15 K	0.495

Cc1ccccc1 + CCCC[N+]1(C)CCCC1.O=S(=O)([N-]S(=O)(=O)C(F)(F)F)C(F)(F)F
x1 = 1
Conditions	viscosity [mPa·s]
293.15 K	0.598
298.15 K	0.569
303.15 K	0.539
313.15 K	0.485

CCCC[n+]1ccccc1.O=S(=O)([N-]S(=O)(=O)C(F)(F)F)C(F)(F)F + Cc1ccccc1
viscosity [mPa·s]
Conditions	x2 = 0	x2 = 0.0994	x2 = 0.2022	x2 = 0.2939	x2 = 0.3972	x2 = 0.5025	x2 = 0.6068	x2 = 0.7033
293.15 K	68.9	54.2	41.67	31.52	–	15.1	–	6.11
298.15 K	–	42.92	33.54	25.9	19	–	9.09	5.53
303.15 K	41.94	34.61	27.6	–	16.23	11.99	8.21	5.19
308.15 K	33.75	28.44	22.89	18.36	–	–	7.48	4.96
313.15 K	27.63	23.67	19.28	15.83	–	9.23	–	4.293

CCCC[N+]1(C)CCCC1.O=S(=O)([N-]S(=O)(=O)C(F)(F)F)C(F)(F)F + Cc1ccccc1
viscosity [mPa·s]
Conditions	x2 = 0	x2 = 0.1093	x2 = 0.1978	x2 = 0.3041	x2 = 0.3965	x2 = 0.5054	x2 = 0.6027	x2 = 0.7066
293.15 K	90.2	66.9	51.5	36.61	26	17.04	11.02	6.26
298.15 K	–	52.3	41.5	29.96	21.88	–	–	5.73
303.15 K	56.2	42.87	34.07	–	–	13.06	9.11	5.28
308.15 K	45.8	34.88	28.4	21.58	16.48	11.86	8.4	5.05
313.15 K	–	29.43	24.08	–	–	10.63	7.58	–
